The values that follow come from patent EP4653001A1, “TREATMENT, DIAGNOSIS AND/OR PROGNOSIS OF MITOCHONDRIAL DISEASES” (Universidad Autónoma de Madrid, priority 2024, dated 2025).

One data set concerns mouse primary astrocytes. Description: Morphology, proliferation and viability of primary astrocytes. It counts as cell-based. On the procedure: (§1) All cell lines, 143b, HeLa, U2OS, and transmitochondrial cybrids carrying mutation in CI (ND2), CIII (CytB) or CIV (Cox2) subunits, were maintained in DMEM high glucose (HyClone), 10% FBS and 1% P/S at 37°C with 5% CO2. Mitochondrial mutant cells were cultured with supplementation of 50 µg/mL uridine. The selected cancer cell lines with different levels of malic enzyme (HCC15, KYSE410, CAKI1, J82, MDAMB453, Colo320, NCIH1703) were obtained from the DSMZ-German Collection of Microorganisms and Cell Cultures GmbH and cultured in the same DMEM 10% FBS medium. OCI-Lys3 and RCH-ACV cell lines (cells in suspension), were obtained from the same repository and cultured in RPMI 10% FBS medium. Transfections for gain- and loss-of-function studies were performed according to the manufacturer's instructions using the polyfect reagent (Qiagen, 301107). For cell number and proliferation experiments, cells were seeded in 12 or 6-well plates and allowed to proliferate for the specified durations. Subsequently, cells were trypsinized and quantified using a hemocytometer (NanoEnTek, DHC-N01). Cell viability was quantified using propidium iodide (PI; 50 µg/ml) staining.
Primary cultures of C57BL/6 mouse cortical astrocytes were derived from postnatal day 2-3 pups. […]

Another data set relates to mouse cortical neurons. Description: ATP measurement in neurons (ATP Assay Kit). The format is cell-based. Particulars: CI-inhibited neurons, 100 nM, 24 h. On the procedure:
Primary cultures of C57BL/6 mouse cortical neurons were prepared from embryos between embryonic days 16.5 and 17.5 and seeded onto pre-treated plates coated with Poly-L-lysine hydrobromide (500 µg/ml). We used Neurobasal medium without D-glucose and sodium pyruvate (ThermoFisher) to modulate D-glucose levels, depending on the experiment (2.5 mM, 5 mM, or 25 mM).
In standard experiments, we utilized Neurobasal medium with 25 mM D-glucose, 1 mM sodium pyruvate (ThermoFisher), B27 plus supplement (GIBCO), GlutaMax I 100X (GIBCO), and 1% penicillin/streptomycin (P/S). Starting from day 6 in vitro (DIV6), half of the medium was replaced every 3-4 days, omitting GlutaMax I.
ATP Assay Kit (Abcam, #ab83355) was used to analyze ATP levels. Briefly, Cells were seeded in M24 plates (neurons at 500,000 cells/mL and monolayer density for astrocytes), and for the ATP experiments, three wells per condition were combined. An alternative deproteinization protocol was applied to purify the samples, and a Colorimetric Assay was conducted as outlined in the original protocol. The measurements were obtained using the CLARIOstar Plus plate reader from BMG LABTECH.

In data set [1] the test system is 143B cells. The data set is described as follows: Time-course cell proliferation / survival of 143B cells. The format is cell-based. Particulars: 143B cells, over the course of 96 h; Piericidin 100 nM, G6PDi 50 uM; combination effect beyond 48 h. As to the method:
as §1, with “For cell number and proliferation experiments, cells were seeded in 12 or 6-well plates and allowed to proliferate for the specified durations.” left out
Next, we conducted time-course experiments to gain further knowledge on the metabolic determinants underlying the observed synthetic lethality between PPP and OXPHOS. 143B cells were treated either with Piericidin or G6PDi (selective inhibitor of G6PD) alone or the combination of both and cell proliferation was quantified over the course of 96 h. […]

Data set [2] has as its system 143B cells. Description: Lactate release in 143B cells (proxy of glycolysis). It counts as cell-based. Particulars: 24 h. As to the method:
Increased lactate secretion is considered a good indicator of enhanced glycolytic rates, which is a common feature of ETC-inhibited cells as they switch from OXPHOS to glycolysis to maintain ATP levels. […] We culture 143B cells in the presence of Piericidin for 24 h and PPP activity and lactate release, as a proxy of glycolysis, were measured. As expected, lactate detection in the media was higher in CI-inhibited cells. […] Next, we wonder if in this context, glucose can be overused by glycolysis and therefore diverted away from the PPP. Diseases associated with impaired mitochondrial function negatively impact high energy demanding tissues such as the brain. As such, neurons that are highly sensitive to ETC inhibition also rely strongly on glucose metabolism. Thus, we used mouse cortical neurons to determine the rates of glycolysis and PPP as glucose levels become limiting. Control and Piericidin treated neurons where cultured in media containing supraphysiological (25 mM), physiological (5 mM) or subphysiological concentrations of glucose (2,5 mM). […] Decreased PPP activity under low glucose (2,5 mM) correlated with a rapid decline in NADPH/NADP+ levels in CI-inhibited cells. Conversely, glucose availability had no effect on ATP levels at this timepoint.

The test system of another data set is primary neurons. The data set is described as follows: Neuronal death. The format is cell-based, mouse. The conditions noted are these: CI inhibition.

`CC=C(C)C(O)C(C)C=C(C)C=CCC(C)=CCc1nc(OC)c(OC)c(O)c1C` (stereo not drawn) [Piericidin, Piericidin A]: the proliferation result in the data set with mouse primary astrocytes (PC and ME1 knockdown astrocytes vs WT controls, 100nM, 96 h) is “proliferated less”. Moreover, the “morphology, proliferation, or overall viability” value with mouse primary astrocytes (mouse primary astrocytes) is “no discernible impact”. The ATP levels entry in the data set with mouse cortical neurons was “maintained”. For the same molecule, the “cellular fitness / cell survival” value in the data set on 143B cells [1] is “did not cause a substantial decline”. In addition, the “lactate detection in the media” value with 143B cells [2] is “higher”. Moreover, in the data set with primary neurons, the neuronal death entry is “did not correspond to an increase”.
